For 28 molecules, remaining activity results are on record in paper PMC8286840, “Identifying SARS-CoV-2 antiviral compounds by screening for small molecule inhibitors of Nsp3 papain-like protease” (Biochemical Journal, 2021).

The structures appear in SMILES notation. Where a name gives a salt, the structure may show the parent alone. Read-outs that look alike come from different tables or passages of the source.

The target of assay [1] is T1, SARS-CoV-2 PLpro (nsp3 1564–1878) (Severe acute respiratory syndrome coronavirus 2, UniProt P0DTD1). Nature of the assay: biochemical. Particulars: low concentration screen, read-out: % of control remaining. Also noted: FRET-quenched peptide (Pro3) cleavage by PLpro, 10 min pre-incubation, slope over 20 min, normalised to no-compound control.
The target in assay [2] is T1, SARS-CoV-2 PLpro (nsp3 1564–1878). Put plainly: biochemical. Details: FRET-quenched peptide (Pro3) cleavage by PLpro, 10 min pre-incubation, slope over 20 min, normalised to no-compound control. The conditions noted are these: high concentration screen, read-out: % of control remaining.

For the molecule `COC(=O)[C@H]1[C@H]2C[C@H]3c4[nH]c5ccccc5c4CCN3C[C@@H]2CC[C@@H]1O` [Corynanthine], the remaining activity at 1.25 µM in assay [1] (Well no.=3795) came to 97.4%. For the same molecule, the remaining activity at 3.75 µM in assay [2] (Well no.=3795) is 103%.

Regarding `C=C1C(=O)O[C@@H]2/C=C(\C)CC/C=C(\C)CC[C@@H]12` [Costunolide], the remaining activity at 1.25 µM in assay [1] (Well no.=5230) came out at 101%; in assay [1] (Well no.=6634), 102%. Moreover, the remaining activity at 3.75 µM in assay [2] (Well no.=5230) is 99.1%; in assay [2] (Well no.=6634), 101%.

Regarding `CN1C(=O)CC[C@H]1c1cccnc1` [Cotinine], the remaining activity at 1.25 µM in assay [1] (Well no.=7163) came out at 97.7%. In addition, in assay [2] (Well no.=7163), the remaining activity at 3.75 µM stood at 96.3%.

As for `CO[C@H]1[C@H](OC(=O)c2ccc(C)[nH]2)[C@H](O)[C@@H](Oc2ccc3c(O)c(NC(=O)c4c[nH]c(C(=O)Nc5c(O)c6ccc(O[C@H]7OC(C)(C)[C@@H](OC)[C@H](OC(=O)c8ccc(C)[nH]8)[C@@H]7O)c(C)c6oc5=O)c4C)c(=O)oc3c2C)OC1(C)C` [Coumermycin A1], the remaining activity at 1.25 µM in assay [1] (Well no.=3175) was 105%. In addition, the remaining activity at 3.75 µM in assay [2] (Well no.=3175) came out at 104%.

As for `O=c1oc2cc(O)ccc2c2oc3cc(O)ccc3c12` [Coumestrol], the remaining activity at 1.25 µM in assay [1] (Well no.=3514) turned out to be 100%. Also, the remaining activity at 3.75 µM in assay [2] (Well no.=3514) came to 93.2%.

In the case of `CN(CC(=O)O)C(=N)N` [Creatine], in assay [1] (Well no.=7457), the remaining activity at 1.25 µM amounted to 101%. Besides, the remaining activity at 3.75 µM in assay [2] (Well no.=7457) came to 103%.

Turning to `CN1CC(=O)NC1=N` [Creatinine], the remaining activity at 1.25 µM in assay [1] (Well no.=5324) came to 96.6%; in assay [1] (Well no.=6967), 104%. The remaining activity at 3.75 µM turned out to be 92.2% in assay [2] (Well no.=5324) and 101% in assay [2] (Well no.=6967).

On to `C[C@@H](Oc1cc(-c2cnn(C3CCNCC3)c2)cnc1N)c1c(Cl)ccc(F)c1Cl` [Crizotinib], for which the remaining activity at 1.25 µM in assay [1] (Well no.=5612) was found to be 99.8%. Also, the remaining activity at 3.75 µM in assay [2] (Well no.=5612) was 101%.

`CN(C)c1ccc(C(=C2C=CC(=[N+](C)C)C=C2)c2ccc(N(C)C)cc2)cc1` [Crystal violet]: the remaining activity at 1.25 µM in assay [1] (Well no.=5000) is 101%. Moreover, in assay [2] (Well no.=5000), the remaining activity at 3.75 µM was 101%.

For the molecule `CC(C)(OO)c1ccccc1` [Cumene hydroperoxide], the remaining activity at 1.25 µM in assay [1] (Well no.=3843) was found to be 103%. The remaining activity at 3.75 µM in assay [2] (Well no.=3843) came to 100%.

`COc1cc(/C=C/C(=O)CC(=O)/C=C/c2ccc(O)c(OC)c2)ccc1O` [Curcumin]: the remaining activity at 1.25 µM in assay [1] (Well no.=3177) came out at 112%; in assay [1] (Well no.=3949) it was 106%. Also, the values for the remaining activity at 3.75 µM in assay [2] (Well no.=3177) and in assay [2] (Well no.=3949) were 105% and 102%, respectively.

As to `C=C1C[C@@]2(O)O[C@@]3(C[C@H]2C(C)C)[C@@H](C)CC[C@@H]13` [Curcumol], the remaining activity at 1.25 µM in assay [1] (Well no.=5202) was 90.5%. In assay [2] (Well no.=5202), the remaining activity at 3.75 µM turned out to be 85.6%.

Regarding `CC(CN(C)C)CN1c2ccccc2Sc2ccc(C#N)cc21` (stereo not shown) [Cyamemazine], the remaining activity at 1.25 µM in assay [1] (Well no.=5789) came out at 102%. Moreover, the remaining activity at 3.75 µM in assay [2] (Well no.=5789) was 105%.

`Nc1nc2c(ncn2[C@@H]2O[C@@H]3COP(=O)(O)O[C@H]4[C@@H](O)[C@H](n5cnc6c(=O)[nH]c(N)nc65)O[C@@H]4COP(=O)(O)O[C@H]3[C@H]2O)c(=O)[nH]1` [Cyclic-di-GMP]: the remaining activity at 1.25 µM in assay [1] (Well no.=7774) is 103%; in assay [1] (Well no.=8405), 101%. The remaining activity at 3.75 µM in assay [2] (Well no.=7774) was 102%; in assay [2] (Well no.=8405) it was 100%.

Regarding `NCCCC[C@@H]1NC(=O)[C@@H](Cc2ccccc2)NC(=O)[C@H](CC(=O)O)NC(=O)CNC(=O)[C@H](CCCN=C(N)N)NC1=O` [Cyclo(-RGDfK)], in assay [1] (Well no.=8410), the remaining activity at 1.25 µM came to 96.3%. In addition, in assay [2] (Well no.=8410), the remaining activity at 3.75 µM was 96.9%.

For `NCCCC[C@@H]1NC(=O)[C@@H](Cc2ccc(O)cc2)NC(=O)[C@H](CC(=O)O)NC(=O)CNC(=O)[C@H](CCCN=C(N)N)NC1=O` [Cyclo(RGDyK) trifluoroacetate], in assay [1] (Well no.=8698), the remaining activity at 1.25 µM was 101%. Besides, the remaining activity at 3.75 µM in assay [2] (Well no.=8698) amounted to 97.8%.

As for `O=C1N[C@@H](Cc2cnc[nH]2)C(=O)N2CCC[C@@H]12` [Cyclo(his-pro)], in assay [1] (Well no.=6245), the remaining activity at 1.25 µM was found to be 106%. Besides, the remaining activity at 3.75 µM in assay [2] (Well no.=6245) came to 105%.

Turning to `CN(C)CCC=C1c2ccccc2C=Cc2ccccc21` [Cyclobenzaprine (hydrochloride)], in assay [1] (Well no.=6284), the remaining activity at 1.25 µM stood at 106%. Further, the remaining activity at 3.75 µM in assay [2] (Well no.=6284) came out at 105%.

For `CN(C)CCC=C1c2ccccc2C=Cc2ccccc21` [Cyclobenzaprine hydrochloride], in assay [1] (Well no.=320), the remaining activity at 1.25 µM stood at 92.5%. The remaining activity at 3.75 µM in assay [2] (Well no.=320) is 93.2%.

Consider `N=c1ccn2c(n1)O[C@H]1[C@H](O)[C@@H](CO)O[C@H]12` [Cyclocytidine], for which the remaining activity at 1.25 µM in assay [1] (Well no.=1936) was 96.5%. Further, in assay [2] (Well no.=1936), the remaining activity at 3.75 µM was 103%.

In the case of `C[C@@H]1C[C@@H]([C@H](O)CC2CC(=O)NC(=O)C2)C(=O)[C@@H](C)C1` [Cycloheximide], the remaining activity at 1.25 µM in assay [1] (Well no.=3179) worked out at 98.2%. Moreover, the remaining activity at 3.75 µM in assay [2] (Well no.=3179) stood at 98.5%.

With `CC1=C2C[C@H]3[C@@H](CC=C4C[C@@H](O)CC[C@@]43C)[C@@H]2CC[C@]12O[C@@H]1C[C@H](C)CN[C@H]1[C@H]2C` [Cyclopamine], the remaining activity at 1.25 µM in assay [1] (Well no.=3181) was found to be 107%. In assay [2] (Well no.=3181), the remaining activity at 3.75 µM turned out to be 106%.

With `CC(=O)C1=C(O)[C@@H]2[C@H]3c4c[nH]c5cccc(c45)C[C@H]3C(C)(C)N2C1=O` [Cyclopiazonic acid], in assay [1] (Well no.=3183), the remaining activity at 1.25 µM was found to be 102%. In addition, the remaining activity at 3.75 µM in assay [2] (Well no.=3183) was 104%.

Take `NS(=O)(=O)c1cc2c(cc1Cl)NC(C1CC3C=CC1C3)NS2(=O)=O` (stereo not shown) [Cyclothiazide]: in assay [1] (Well no.=387), the remaining activity at 1.25 µM worked out at 104%. Also, the remaining activity at 3.75 µM in assay [2] (Well no.=387) worked out at 101%.

As for `CN1CCC(=C2c3ccccc3C=Cc3ccccc32)CC1` [Cyproheptadine (hydrochloride sesquihydrate)], in assay [1] (Well no.=6185), the remaining activity at 1.25 µM came out at 97.8%. Besides, in assay [2] (Well no.=6185), the remaining activity at 3.75 µM amounted to 95.9%.

For the molecule `CN1CCC(=C2c3ccccc3C=Cc3ccccc32)CC1` [Cyproheptadine (hydrochloride)], the remaining activity at 1.25 µM in assay [1] (Well no.=6994) was found to be 97.6%. Further, the remaining activity at 3.75 µM in assay [2] (Well no.=6994) was 99.7%.

As for `CN1CCC(=C2c3ccccc3C=Cc3ccccc32)CC1` [Cyproheptadine hydrochloride], in assay [1] (Well no.=38), the remaining activity at 1.25 µM is 93.9%. Further, the remaining activity at 3.75 µM in assay [2] (Well no.=38) amounted to 91.5%.

For the molecule `CN1CCC(=C2c3ccccc3C=Cc3ccccc32)CC1` [Cyproheptadine], the remaining activity at 1.25 µM in assay [1] (Well no.=2300) was 97.2%. The remaining activity at 3.75 µM in assay [2] (Well no.=2300) turned out to be 98.2%.
